Laboratory results from article PMC9482650, “Quantitative fragmentomics allow affinity mapping of interactomes” (Nature Communications, 2022).
Residue numbers refer to the chain shown, from its start. Where two headings read alike, the source gives them in different places. Ends that are not written are not given here.

Legend:
Format in all cases: binding
[1] = target: T1, NHERF3_1 PDZ (Homo sapiens, UniProt Q5T2W1); experiment: Holdup assay
T1 sequence (Q5T2W1 9-90 limits assumed): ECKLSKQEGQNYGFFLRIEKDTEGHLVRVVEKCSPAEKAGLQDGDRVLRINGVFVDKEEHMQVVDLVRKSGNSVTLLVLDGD

[2] = target: SNX27 PDZ (Homo sapiens, UniProt Q96L92); experiment: Holdup assay; conditions: composite holdup affinity; 0.00=below quantification threshold; read-out: COMP pKd (converted)
[3] = target: T2, MAST2 PDZ (Homo sapiens, UniProt Q6P0Q8); experiment: biochemical; conditions: composite holdup affinity; 0.00=below quantification threshold; read-out: COMP pKd (converted)
T2 sequence (Q6P0Q8 1104-1192 limits assumed): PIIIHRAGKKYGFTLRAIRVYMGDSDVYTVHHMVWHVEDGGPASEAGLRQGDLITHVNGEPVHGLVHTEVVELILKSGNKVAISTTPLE

[4] = target: MAGI3_2 PDZ (Homo sapiens, UniProt Q5TCQ9); experiment: Holdup assay
[5] = target: MAGI2_2 PDZ (Homo sapiens, UniProt Q86UL8); experiment: Holdup assay
[6] = target: MAGI1_2 PDZ (Homo sapiens, UniProt Q96QZ7); experiment: biochemical
[7] = target: T3, SYNJ2BP PDZ (Homo sapiens, UniProt P57105); experiment: Holdup assay
T3 sequence (P57105 13-100 limits assumed): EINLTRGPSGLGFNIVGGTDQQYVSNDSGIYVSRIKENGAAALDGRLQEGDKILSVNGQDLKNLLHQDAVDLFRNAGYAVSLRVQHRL

[8] = target: DLG1_2 PDZ (Homo sapiens, UniProt Q12959); experiment: Holdup assay
[9] = target: DLG2_2 PDZ (Homo sapiens, UniProt Q15700); experiment: Holdup assay
[10] = target: DLG4_1 PDZ (Homo sapiens, UniProt P78352); experiment: Holdup assay
[11] = target: T4, SCRIB_3 PDZ (Homo sapiens, UniProt Q14160); experiment: Holdup assay
T4 sequence (Q14160 1004-1093 limits assumed): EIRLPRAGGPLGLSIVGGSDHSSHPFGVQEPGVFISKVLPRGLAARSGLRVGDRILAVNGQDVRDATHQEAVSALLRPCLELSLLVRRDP

[12] = target: SCRIB_1 PDZ (Homo sapiens, UniProt Q14160); experiment: Holdup assay
[13] = target: T5, TX1BP3 PDZ (Homo sapiens, UniProt O14907); experiment: Holdup assay
T5 sequence (O14907 15-112 limits assumed): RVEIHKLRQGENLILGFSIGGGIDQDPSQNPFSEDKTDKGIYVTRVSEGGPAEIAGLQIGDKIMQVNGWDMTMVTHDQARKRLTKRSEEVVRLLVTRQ

[14] = target: T6, SNTG2 PDZ (Homo sapiens, UniProt Q9NY99); experiment: Holdup assay
T6 sequence (Q9NY99 73-156 limits assumed): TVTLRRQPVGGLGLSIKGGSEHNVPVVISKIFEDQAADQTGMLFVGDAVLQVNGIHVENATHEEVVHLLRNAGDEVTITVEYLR

[15] = target: T7, SNTG1 PDZ (Homo sapiens, UniProt Q9NSN8); experiment: Holdup assay
T7 sequence (Q9NSN8 57-140 limits assumed): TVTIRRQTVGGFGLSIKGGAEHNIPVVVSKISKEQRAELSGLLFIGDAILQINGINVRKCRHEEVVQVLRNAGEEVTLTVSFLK

[16] = target: T8, SNTB1 PDZ (Homo sapiens, UniProt Q13884); experiment: Holdup assay
T8 sequence (Q13884 112-195 limits assumed): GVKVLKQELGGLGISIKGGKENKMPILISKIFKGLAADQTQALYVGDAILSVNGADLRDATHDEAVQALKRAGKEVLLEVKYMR

[17] = target: T9, SNTA1 PDZ (Homo sapiens, UniProt Q13424); experiment: Holdup assay
T9 sequence (Q13424 87-170 limits assumed): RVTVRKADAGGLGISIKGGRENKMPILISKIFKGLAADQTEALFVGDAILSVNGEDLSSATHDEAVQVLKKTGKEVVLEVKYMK

[18] = target: LAP2 PDZ (Homo sapiens, UniProt Q96RT1); experiment: Holdup assay
[19] = target: T10, PDZRN4_1 PDZ (Homo sapiens, UniProt Q6ZMN7); experiment: Holdup assay
T10 sequence (Q6ZMN7 224-314 limits assumed): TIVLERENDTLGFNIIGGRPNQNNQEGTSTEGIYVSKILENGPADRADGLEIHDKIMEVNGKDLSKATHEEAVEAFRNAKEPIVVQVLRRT

[20] = target: T11, ARHGEF11 PDZ (Homo sapiens, UniProt O15085); experiment: Holdup assay
T11 sequence (O15085 47-126 limits assumed): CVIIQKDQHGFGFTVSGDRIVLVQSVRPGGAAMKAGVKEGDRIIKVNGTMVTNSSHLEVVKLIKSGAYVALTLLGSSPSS

[21] = target: MAGI2_4 PDZ (Homo sapiens, UniProt Q86UL8); experiment: Holdup assay
[22] = target: T12, DLG3_1 PDZ (Homo sapiens, UniProt Q92796); experiment: Holdup assay
T12 sequence (Q92796 130-217 limits assumed): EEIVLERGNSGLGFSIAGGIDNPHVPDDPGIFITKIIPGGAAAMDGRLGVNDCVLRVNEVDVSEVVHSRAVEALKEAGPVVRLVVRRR

[23] = target: T13, DLG3_3 PDZ (Homo sapiens, UniProt Q92796); experiment: Holdup assay
T13 sequence (Q92796 379-465 limits assumed): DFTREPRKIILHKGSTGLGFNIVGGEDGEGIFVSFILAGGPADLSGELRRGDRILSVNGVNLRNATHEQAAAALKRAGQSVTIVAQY

[24] = target: T14, LIN7C PDZ (Homo sapiens, UniProt Q9NUP9); experiment: Holdup assay
T14 sequence (Q9NUP9 93-175 limits assumed): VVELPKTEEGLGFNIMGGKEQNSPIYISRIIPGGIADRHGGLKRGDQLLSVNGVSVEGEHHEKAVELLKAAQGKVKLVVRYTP

[25] = target: T15, LIN7B PDZ (Homo sapiens, UniProt Q9HAP6); experiment: Holdup assay
T15 sequence (Q9HAP6 93-175 limits assumed): T14 sequence (Q9NUP9 93-175 limits assumed) with E8D, I30V, I35V, H60Q, K74S

[26] = composite holdup affinity, 0.00=below quantification threshold, read-out: COMP pKd (converted)

Sequence of DLG4_1 PDZ (P78352 65-151): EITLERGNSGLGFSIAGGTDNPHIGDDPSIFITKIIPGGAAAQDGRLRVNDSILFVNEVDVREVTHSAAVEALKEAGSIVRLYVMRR
Sequence of MAGI3_2 PDZ (Q5TCQ9 410-492 limits assumed): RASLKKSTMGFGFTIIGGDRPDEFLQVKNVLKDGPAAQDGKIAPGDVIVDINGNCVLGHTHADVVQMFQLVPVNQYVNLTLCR
Sequence of MAGI2_2 PDZ (Q86UL8 426-510 limits assumed): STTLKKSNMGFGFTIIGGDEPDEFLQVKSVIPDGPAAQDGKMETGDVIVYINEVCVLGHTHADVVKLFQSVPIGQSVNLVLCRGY
Sequence of MAGI2_4 PDZ (Q86UL8 778-860 limits assumed): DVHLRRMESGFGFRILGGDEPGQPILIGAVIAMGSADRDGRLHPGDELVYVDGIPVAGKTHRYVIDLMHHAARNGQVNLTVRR
Sequence of MAGI1_2 PDZ (Q96QZ7 472-554 limits assumed): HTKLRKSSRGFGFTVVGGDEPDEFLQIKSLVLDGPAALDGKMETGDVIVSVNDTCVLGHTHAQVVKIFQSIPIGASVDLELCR
Sequence of DLG2_2 PDZ (Q15700 193-279 limits assumed): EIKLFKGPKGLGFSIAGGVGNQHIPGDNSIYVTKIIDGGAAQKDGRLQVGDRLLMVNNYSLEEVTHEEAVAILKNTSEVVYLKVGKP
Sequence of DLG1_2 PDZ (Q12959 319-405 limits assumed): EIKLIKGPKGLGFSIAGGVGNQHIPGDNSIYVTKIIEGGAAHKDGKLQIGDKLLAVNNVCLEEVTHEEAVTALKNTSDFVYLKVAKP
Sequence of LAP2 PDZ (Q96RT1 1321-1410 limits assumed): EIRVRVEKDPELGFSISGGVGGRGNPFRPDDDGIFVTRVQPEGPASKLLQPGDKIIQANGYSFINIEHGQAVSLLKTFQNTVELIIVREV
Sequence of SCRIB_1 PDZ (Q14160 728-815 limits assumed): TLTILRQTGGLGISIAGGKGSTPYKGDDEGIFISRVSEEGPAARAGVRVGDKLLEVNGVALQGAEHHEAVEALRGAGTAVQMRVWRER

With `CC(C)C[C@H](NC(=O)[C@@H](N)CCCNC(=N)N)C(=O)N[C@@H](CCC(N)=O)C(=O)N[C@@H](CCCNC(=N)N)C(=O)N[C@@H](CCCNC(=N)N)C(=O)N[C@@H](CCCNC(=N)N)C(=O)N[C@@H](CCC(=O)O)C(=O)N[C@H](C(=O)N[C@@H](CCC(N)=O)C(=O)N[C@H](C(=O)O)C(C)C)[C@@H](C)O` [HPV18-E6] the Kd [1] was 89.1 µM, the Kd [2] was 28.2 µM and the Kd [3] was 16.6 µM. For the same molecule, the Kd [4] was 2.75 µM, the Kd [5] was 6.92 µM and the Kd [6] was 1.07 µM. The Kd [7] was 4.47 µM, the Kd [8] was 1.66 µM and the Kd [9] was 6.46 µM. The Kd [10] was 7.76 µM, the Kd [11] was 14.5 µM and the Kd [12] was 55 µM. The Kd [13] was 21.9 µM, the Kd [14] was 93.3 µM and the Kd [15] was 117 µM. The Kd [16] was 5.89 µM, the Kd [17] was 20 µM and the Kd [18] was 245 µM. For the same molecule, the Kd [19] was 33.1 µM, the Kd [20] was 219 µM and the Kd [21] was 52.5 µM. For the same molecule, the Kd [22] was 45.7 µM, the Kd [23] was 3.63 µM and the Kd [24] was 67.6 µM. It also gave a Kd [25] of 263 µM.
With SKPTRRETEV [HPV35-E6] the Kd [1, 26] was 91.2 µM, the Kd [2] was 21.9 µM and the Kd [3] was 8.13 µM. The Kd [4, 26] was 4.07 µM, the Kd [5, 26] was 11.7 µM and the Kd [6, 26] was 7.41 µM. It also gave a Kd [7, 26] of 2.04 µM, a Kd [8, 26] of 2.29 µM and a Kd [9, 26] of 5.37 µM. For the same molecule, the Kd [10, 26] was 8.13 µM, the Kd [11, 26] was 12.9 µM and the Kd [12, 26] was 27.5 µM. For the same molecule, the Kd [13, 26] was 11.7 µM, the Kd [14, 26] was 112 µM and the Kd [15, 26] was 49 µM. The Kd [16, 26] was 20.9 µM, the Kd [17, 26] was 14.1 µM and the Kd [18, 26] was 204 µM. The Kd [19, 26] was 41.7 µM, the Kd [20, 26] was 77.6 µM and the Kd [21, 26] was 45.7 µM. The Kd [22, 26] was 35.5 µM, the Kd [23, 26] was 6.61 µM and the Kd [24, 26] was 174 µM. It also gave a Kd [25, 26] of 324 µM.
SRRPRTETQV [HPV31-E6] was tested, and the Kd [1, 26] was 47.9 µM, the Kd [2] was 22.9 µM and the Kd [3] was 5.89 µM. The Kd [4, 26] was 1.35 µM, the Kd [5, 26] was 0.417 µM and the Kd [6, 26] was 2.88 µM. For the same molecule, the Kd [7, 26] was 3.89 µM, the Kd [8, 26] was 1.62 µM and the Kd [9, 26] was 4.27 µM. It also gave a Kd [10, 26] of 9.55 µM, a Kd [11, 26] of 27.5 µM and a Kd [12, 26] of 25.1 µM. For the same molecule, the Kd [13, 26] was 24.5 µM, the Kd [14, 26] was 83.2 µM and the Kd [15, 26] was 58.9 µM. The Kd [16, 26] was 70.8 µM, the Kd [17, 26] was 51.3 µM and the Kd [18, 26] was 126 µM. The Kd [19, 26] was 64.6 µM, the Kd [20, 26] was 263 µM and the Kd [21, 26] was 33.1 µM. The Kd [22, 26] was 36.3 µM, the Kd [23, 26] was 7.94 µM and the Kd [24, 26] was 117 µM. It also gave a Kd [25, 26] of 209 µM.
